In paper PMC7203153, “Rational identification and characterisation of peptide ligands for targeting polysialic acid” (Scientific Reports, 2020):
Marks after values point to notes of the source that are not given here. Where a SMILES comes first, the peptide text is derived from it.

Experiment: Fluorescence anisotropy (FA) assay of peptide–PSA binding
Set-up: species or system Escherichia coli
Settings: FA titration; N-acetylated, C-terminally TAMRA-labelled peptide 20 nM; CA 0–1500 μM; PBS pH 7.4 (10 mM phosphate, 100 mM NaCl); 3 h, ~20 °C; four-parameter logistic fit; at least two independent experiments, at least triplicate; * = accuracy likely poor (SE > KD)
Description: Peptides (Table 2) were synthesized at >95% purity (confirmed with HPLC) by Biomatik (see Supplementary Information). All peptides were N-terminally acetylated and C-terminally labelled with tetramethylrhodamine dye (TAMRA). TAMRA was chosen as a label due to its pH insensitivity compared to FAM (fluorescein) and related dyes commonly used for fluorescence assays. Experiments were conducted in black 384-well plates with non-binding surface (NBS, Corning, Inc.) to minimize background binding and enhance signal-to-noise ratio in the fluorescence-based binding assay. Titrations were carried out through addition of TAMRA-labelled peptide (8 μL, final concentration 20 nM) to CA (72 μL, final concentrations 0–1500 μM) in PBS, pH 7.4 (10 mM phosphate, 100 mM NaCl), and solutions were incubated with agitation to equilibrium at room temperature (3 h, ~20 °C). Parallel and perpendicular intensities were subsequently measured at 530 nm excitation (band width 5 nm) and 580 nm emission (band width 20 nm) in fluorescence polarization mode with a Tecan Infinite M1000 Pro plate reader. Total fluorescence intensities were also measured as a control for fluorophore properties with target binding; fluorescence intensities of free peptide were determined to be approximately equivalent to intensities with peptide–CA mixtures. At higher concentrations of free CA (control with no peptide addition), attenuation of detected light differed in parallel and perpendicular planes, so respective intensities were subtracted from peptide–CA intensities prior to anisotropy calculations. […] Unique samples were screened in at least triplicate within each titration experiment, and each peptide titration was carried out at least twice. In experimental repeats, peptide locations on plates were varied to prevent location-specific effects, if any, and different combinations of peptides were assessed at once. Anisotropies were calculated from corrected parallel and perpendicular intensities, and values were fit to the four-parameter logistic binding model[70] in MATLAB. Prior to curve fitting, anisotropy values for each peptide were transformed through subtraction of minimum values to enhance comparison between peptides. The resulting translations in binding curves were identical, within error, to change in anisotropy curves obtained through subtraction of anisotropy of free labelled peptide. Bmax and KD values obtained were used in the calculation of Bmax/KD ratios for comparison to microarray intensity values, and the Pearson correlation coefficient (r) was determined.

Molecule	Kd
CC(=O)N[C@@H](CCCCN)C(=O)N[C@@H](CC(=O)O)C(=O)N1CCC[C@H]1C(=O)N[C@@H](CO)C(=O)N[C@@H](Cc1ccc(O)cc1)C(=O)N[C@@H](CO)C(=O)N[C@@H](CC(C)C)C(=O)N[C@@H](CCC(N)=O)C(=O)N[C@H](C(=O)N[C@@H](CCC(N)=O)C(=O)N[C@@H](CCCNC(=N)N)C(=O)N[C@@H](CCC(N)=O)C(=O)N[C@H](C(=O)N1CCC[C@H]1C(=O)N[C@H](C(N)=O)C(C)C)C(C)C)C(C)C [I-P2] (Ac-KDPSYSLQVQRQVPV-NH2)	405 µM
CC[C@H](C)[C@H](NC(C)=O)C(=O)N[C@@H](Cc1ccc(O)cc1)C(=O)N1CCC[C@H]1C(=O)NCC(=O)N[C@@H](CO)C(=O)NCC(=O)N[C@@H](CC(N)=O)C(=O)N[C@H](C(=O)N[C@@H](CCCCN)C(=O)N[C@@H](Cc1ccc(O)cc1)C(=O)N[C@@H](CC(N)=O)C(=O)N[C@@H](CCC(=O)O)C(=O)N[C@@H](CCCCN)C(=O)N[C@@H](Cc1ccccc1)C(=O)N[C@@H](CCCCN)C(N)=O)[C@@H](C)O [II-P76] (Ac-IYPGSGNTKYNEKFK-NH2)	1290 µM
CC(=O)N[C@@H](CC(N)=O)C(=O)N[C@@H](CCCNC(=N)N)C(=O)N[C@H](C(=O)N[C@H](C(=O)N[C@@H](CC(C)C)C(=O)N[C@@H](CCCNC(=N)N)C(=O)N[C@@H](CC(N)=O)C(=O)N[C@@H](CC(C)C)C(=O)NCC(=O)N[C@@H](CC(N)=O)C(=O)NCC(=O)N[C@H](C(=O)N[C@@H](CO)C(=O)N[C@@H](CC(C)C)C(=O)N1CCC[C@H]1C(N)=O)[C@@H](C)O)C(C)C)[C@@H](C)O [II-P336] (Ac-NRTVLRNLGNGTSLP-NH2)	577 µM

Same assay, conditions: PSA concentration 1500 µM; ± inter-assay SD, at least two independent experiments; SD

Molecule	Non-adjusted anisotropy
CC(=O)N[C@@H](CCCCN)C(=O)N[C@@H](CC(=O)O)C(=O)N1CCC[C@H]1C(=O)N[C@@H](CO)C(=O)N[C@@H](Cc1ccc(O)cc1)C(=O)N[C@@H](CO)C(=O)N[C@@H](CC(C)C)C(=O)N[C@@H](CCC(N)=O)C(=O)N[C@H](C(=O)N[C@@H](CCC(N)=O)C(=O)N[C@@H](CCCNC(=N)N)C(=O)N[C@@H](CCC(N)=O)C(=O)N[C@H](C(=O)N1CCC[C@H]1C(=O)N[C@H](C(N)=O)C(C)C)C(C)C)C(C)C [I-P2] (Ac-KDPSYSLQVQRQVPV-NH2)	35.8 ± 11.5

Same assay, conditions: from FA curve fits, among the peptides characterised with FA

Molecule	Bmax/KD ratio (binding potential)
CC(=O)N[C@@H](CC(N)=O)C(=O)N[C@@H](CCCNC(=N)N)C(=O)N[C@H](C(=O)N[C@H](C(=O)N[C@@H](CC(C)C)C(=O)N[C@@H](CCCNC(=N)N)C(=O)N[C@@H](CC(N)=O)C(=O)N[C@@H](CC(C)C)C(=O)NCC(=O)N[C@@H](CC(N)=O)C(=O)NCC(=O)N[C@H](C(=O)N[C@@H](CO)C(=O)N[C@@H](CC(C)C)C(=O)N1CCC[C@H]1C(N)=O)[C@@H](C)O)C(C)C)[C@@H](C)O [II-P336] (Ac-NRTVLRNLGNGTSLP-NH2)	highest

Experiment: Competitive microarray selectivity screening with α-2,8/9-PSA
Assay type: binding, Escherichia coli
Settings: 10% competing α-2,8/9-PSA
Description: Competitive microarray screening with α-2,8/9-PSA was conducted in order to assess selective binding of peptides to α-2,8-PSA. The definition of percent selectivity at 10% competing glycan was applied to enable selectivity comparisons amongst a larger set of peptides[25] […] However, the use of an isomeric polymer is a more stringent assessment of selectivity; here, selective binding is guided by three-dimensional conformation and not additionally by differences in functional groups.
Peptide library synthesis, microarray preparation, and microarray screening were performed as described previously[25] with the following specifications. Siglec-related sequences were N-terminally acetylated to match the charge of the corresponding protein fragment. All peptides were printed in triplicate (60 nL spots), and each initial affinity screening was carried out at least three times. Screening was conducted with 10 μM colominic acid (CA; 5 mL per microarray), the Escherichia coli homolog of α-2,8-PSA identical in structure to human-derived PSA[67], and with antibody-based chemiluminescent detection of CA. For selectivity screening, microarrays were challenged with 10 μM CA with 0, 0.1, 1, and 10 μM α-2,8/9-PSA in separate conditions (5 mL total volume each), where molar concentrations were based on molecular weight estimation of synthesized 2,8/9-PSA (details on α-2,8/9-PSA production, purification, and analysis are provided in Supplementary Information). Selectivity screening with monomeric sialic acid was conducted with mass and molar equivalents of N-acetylneuraminic acid (Rose Scientific, Ltd.) along with 10 μM CA (5 mL total volume each). The mass equivalent amount of sialic acid (specifically, 970 μM sialic acid for a given volume of 10 μM CA) was calculated for CA of an average degree of polymerization of 100. For study of pH-dependent binding, affinity screening with CA was performed using PBS buffers of pH 6.0, 7.0, 7.4, and 8.0 (10 mM phosphate, 100 mM NaCl). The impact of NaCl on peptide binding was assessed at pH 7.4 with 0, 100, and 200 mM NaCl. […]

Molecule	selectivity mark in Table 1
CC(=O)N[C@@H](CC(N)=O)C(=O)N[C@@H](CCCNC(=N)N)C(=O)N[C@H](C(=O)N[C@H](C(=O)N[C@@H](CC(C)C)C(=O)N[C@@H](CCCNC(=N)N)C(=O)N[C@@H](CC(N)=O)C(=O)N[C@@H](CC(C)C)C(=O)NCC(=O)N[C@@H](CC(N)=O)C(=O)NCC(=O)N[C@H](C(=O)N[C@@H](CO)C(=O)N[C@@H](CC(C)C)C(=O)N1CCC[C@H]1C(N)=O)[C@@H](C)O)C(C)C)[C@@H](C)O [II-P336] (Ac-NRTVLRNLGNGTSLP-NH2)	II-P336* (Peptides with selectivity >80%)
AISSPLLKNPFRGGGS [II-P214, phage display screening peptide with W8K mutation]	II-P214* (Peptides with selectivity >80%)

Same assay, conditions: binding to 10 μM α-2,8-PSA (CA) with 10% competing α-2,8/9-PSA; ± SD of triplicate intra-assay measurements; SD

Molecule	% selectivity
AALSPRRTRPSTSHF [I-P85]	59 ± 5%
AISSPLLRNPFRGGGS [II-P213, phage display screening peptide with W8R mutation]	66 ± 9%
FRVKICRKEARKRAA [I-P278]	43 ± 8%
FSRKGVSAQRTVRLR [I-P103]	55 ± 11%
GGKGGGKGGGKGGGK [I-P380, de novo peptide composed of lysine and glycine residues]	56 ± 7%
GRTSAKTGAPVATNN [I-P344, Siglec-11-derived peptide with P5A mutation]	85 ± 8%
GRTSPKAGAPVATNN [I-P346, Siglec-11-derived peptide with T7A mutation]	91 ± 15%
GSGSGTDFTLKISRV [II-P35, peptide designed from mAb735]	53 ± 6%
KGGGKGGGKGGGKGG [I-P379, de novo peptide composed of lysine and glycine residues]	61 ± 7%
KGKGKGKGKGKGKGK [I-P378, de novo designed peptide with alternating Lys and Gly residues]	60 ± 9%
KIHTGQPLRGPGFGL [I-P323]	86 ± 8%
LKVTALTKKPDVYIP [I-P62]	67 ± 17%
LSNAFFLKVTALTKK [I-P59]	52 ± 10%
LSPRRTRPSTSHFSV [I-P86]	62 ± 10%
NAFFLKVTALTKKPD [I-P60]	70 ± 18%
PGSGNTKYNEKFKGK [II-P77, peptide designed from mAb735]	49 ± 5%
QELHYASLSFQGLRL [I-P307]	80 ± 14%
RKGVSAQRTVRLRVA [I-P104]	45 ± 4%
TLPAILQASGTRGGGS [II-P145, phage display screening peptide with S8A mutation]	81 ± 16%
VDFSRKGVSAQRTVR [I-P102]	59 ± 10%
VKICRKEARKRAAAE [I-P279]	46 ± 12%
VPYTFGGGTRLEIKG [II-P50, peptide designed from mAb735]	71 ± 9%
WFKGKTSPKTGAPVA [I-P333, Siglec-11-derived peptide with R5K mutation]	59 ± 2%
WFKGRTSPKTGAPVA [I-P330, Siglec-11-derived peptide]	35 ± 1%
WGPRTLGLELRGVRA [I-P143]	37 ± 1%
YSEIKIHTGQPLRGP [I-P321]	85 ± 18%
YWFKGRTSPKTGAPV [I-P23]	43 ± 3%

Experiment: Peptide microarray affinity screening against α-2,8-PSA (colominic acid)
Assay type: binding, Escherichia coli
Settings: 10 μM CA, pH 7.4
Description: Peptide library synthesis, microarray preparation, and microarray screening were performed as described previously[25] with the following specifications. Siglec-related sequences were N-terminally acetylated to match the charge of the corresponding protein fragment. All peptides were printed in triplicate (60 nL spots), and each initial affinity screening was carried out at least three times. Screening was conducted with 10 μM colominic acid (CA; 5 mL per microarray), the Escherichia coli homolog of α-2,8-PSA identical in structure to human-derived PSA[67], and with antibody-based chemiluminescent detection of CA. For selectivity screening, microarrays were challenged with 10 μM CA with 0, 0.1, 1, and 10 μM α-2,8/9-PSA in separate conditions (5 mL total volume each), where molar concentrations were based on molecular weight estimation of synthesized 2,8/9-PSA (details on α-2,8/9-PSA production, purification, and analysis are provided in Supplementary Information). Selectivity screening with monomeric sialic acid was conducted with mass and molar equivalents of N-acetylneuraminic acid (Rose Scientific, Ltd.) along with 10 μM CA (5 mL total volume each). The mass equivalent amount of sialic acid (specifically, 970 μM sialic acid for a given volume of 10 μM CA) was calculated for CA of an average degree of polymerization of 100. For study of pH-dependent binding, affinity screening with CA was performed using PBS buffers of pH 6.0, 7.0, 7.4, and 8.0 (10 mM phosphate, 100 mM NaCl). The impact of NaCl on peptide binding was assessed at pH 7.4 with 0, 100, and 200 mM NaCl.
Microarray image and data analysis was performed as described. […] Of the triplicate experiments used to generate mean microarray affinity intensities in standard conditions (within each of which 762 peptides were represented in triplicate), 225 out of 762 values in one of these three experiments were derived from raw data previously reported, but were alternatively analysed as stated. Peptide isoelectric points were calculated with the EMBOSS iep program.

Molecule	change in microarray binding with 200 mM vs 100 mM NaCl
CC(=O)N[C@@H](CCCCN)C(=O)N[C@@H](CC(=O)O)C(=O)N1CCC[C@H]1C(=O)N[C@@H](CO)C(=O)N[C@@H](Cc1ccc(O)cc1)C(=O)N[C@@H](CO)C(=O)N[C@@H](CC(C)C)C(=O)N[C@@H](CCC(N)=O)C(=O)N[C@H](C(=O)N[C@@H](CCC(N)=O)C(=O)N[C@@H](CCCNC(=N)N)C(=O)N[C@@H](CCC(N)=O)C(=O)N[C@H](C(=O)N1CCC[C@H]1C(=O)N[C@H](C(N)=O)C(C)C)C(C)C)C(C)C [I-P2] (Ac-KDPSYSLQVQRQVPV-NH2)	did not display any change in binding
CC(=O)N[C@@H](CCC(=O)O)C(=O)N[C@@H](Cc1c[nH]cn1)C(=O)NCC(=O)NCC(=O)NCC(=O)N[C@@H](CC(C)C)C(=O)NCC(=O)N[C@@H](CC(C)C)C(=O)NCC(=O)N[C@@H](C)C(=O)N[C@@H](C)C(=O)N[C@@H](CC(C)C)C(=O)NCC(=O)N[C@@H](C)C(=O)NCC(N)=O [I-P264] (Ac-EHGGGLGLGAALGAG-NH2)	did not display any change in binding
